Measured values published in US8822430B2 (Gilead Sciences, Inc., priority 2009, dated 2014).

tested on: HCV 1b RLuc cells (dicistronic genotype 1b Con1 replicon); test: Renilla luciferase (RLuc)-based HCV replicon reporter assay; assay type: cell-based, HCV genotype 1b; details: Hepatitis C virus, 72 h, HCV 1b RLuc replicon, 72 hours; read-out: Activity (antiviral potency [EC50])
How it was run: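 EC50 values were calculated by non-linear regression of Renilla luciferase signal from lysed cells after 72 h of compound exposure. Cells harboured a genotype 1b Con1 dicistronic replicon encoding RLuc. Compounds were serially diluted in DMSO from 10 mM stocks into culture media.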

SMILES	EC50
COC(=O)N[C@H](C(=O)N1CCC[C@H]1c1ncc(-c2ccc3cc(-c4ccc5nc([C@@H]6CCCN6C(=O)[C@@H](NC(=O)OC)C(C)C)[nH]c5c4)ccc3c2)[nH]1)C(C)C	0.0067 nM
COC(=O)N[C@H](C(=O)N1CCC[C@H]1c1ncc(-c2ccc(-c3ccc4nc([C@@H]5CCCN5C(=O)[C@@H](NC(=O)OC)C(C)C)[nH]c4c3)cc2)[nH]1)C(C)C	0.0372 nM
COC(=O)N[C@H](C(=O)N1Cc2ccccc2C1c1ncc(-c2ccc(-c3ccc(-c4cnc([C@@H]5CCCN5C(=O)[C@@H](NC(=O)OC)C(C)C)[nH]4)cc3)cc2)[nH]1)C(C)C (some centres unmarked)	0.0414 nM
COC(=O)N[C@H](C(=O)N1CCC[C@H]1c1ncc(-c2cc3c(OC)c4sc(-c5cnc([C@@H]6CCCN6C(=O)[C@@H](NC(=O)OC)C(C)C)[nH]5)cc4c(OC)c3s2)[nH]1)C(C)C	0.0161 nM
COC(=O)N[C@H](C(=O)N1CCC[C@H]1c1ncc(-c2ccc3cc(-c4ccc(-c5cnc([C@@H]6C[C@H](c7ccccc7)CN6C(=O)[C@@H](NC(=O)OC)C(C)C)[nH]5)cc4)ccc3c2)[nH]1)C(C)C	0.0189 nM
COC(=O)N[C@H](C(=O)N1CCC[C@H]1c1ncc(-c2ccc3c(c2)Cc2cc(-c4cnc([C@@H]5CCCN5C(=O)[C@@H](NC(=O)OC)C(C)C)[nH]4)ccc2-3)[nH]1)C(C)C	0.0137 nM
COC(=O)N[C@H](C(=O)N1CCC(c2ncc(-c3ccc(-c4ccc(-c5cnc([C@@H]6CCCN6C(=O)[C@@H](NC(=O)OC)C(C)C)[nH]5)cc4)cc3)[nH]2)C1)C(C)C (some centres unmarked)	0.775 nM
COC(=O)N[C@H](C(=O)N1CCC[C@H]1c1ncc(-c2ccc3c(c2)Sc2ccc(-c4cnc([C@@H]5CCCN5C(=O)[C@@H](NC(=O)OC)C(C)C)[nH]4)cc2S3)[nH]1)C(C)C	0.0058 nM
COC(=O)N[C@H](C(=O)N1CCC[C@H]1c1ncc(-c2ccc3cc(-c4ccc(-c5cnc(-c6cccn6S(=O)(=O)c6ccccc6)[nH]5)cc4)ccc3c2)[nH]1)C(C)C	24.1 nM
COC(=O)NC(C(=O)N1CCC[C@H]1c1ncc(-c2ccc3cc(-c4ccc(-c5cnc([C@@H]6CCCN6C(=O)[C@@H](NC(=O)OC)C(C)C)[nH]5)cc4)ccc3c2)[nH]1)c1ccccc1 (some centres unmarked)	0.0092 nM
COC(=O)N[C@H](C(=O)N1CCC[C@H]1c1nc2ccc(-c3ccc(-c4ccc5nc([C@@H]6CCCN6C(=O)[C@@H](NC(=O)OC)C(C)C)[nH]c5c4)s3)cc2[nH]1)C(C)C	0.0103 nM
CNC(=O)N1CCN(C(=O)[C@@H](NC(=O)OC)C(C)C)[C@H](c2ncc(-c3ccc(C#Cc4ccc(-c5cnc([C@@H]6CCCN6C(=O)[C@@H](NC(=O)OC)C(C)C)[nH]5)cc4)cc3)[nH]2)C1	1.05 nM
COC(=O)N[C@H](C(=O)N1C[C@@H](Oc2cnccn2)C[C@H]1c1ncc(-c2ccc(-c3ccc4cc(-c5cnc([C@@H]6CC7(CC7)CN6C(=O)[C@@H](NC(=O)OC)C(C)C)[nH]5)ccc4c3)cc2)[nH]1)C(C)C	0.014 nM
COC[C@@H]1C[C@@H](c2ncc(-c3ccc(-c4ccc5cc(-c6cnc([C@@H]7CC8(CC8)CN7C(=O)[C@@H](NC(=O)OC)C(C)C)[nH]6)ccc5c4)cc3)[nH]2)N(C(=O)[C@@H](NC(=O)OC)C(C)C)C1	0.0092 nM
COC(=O)N[C@@H](C)C(=O)N1[C@@H](c2ccccc2)CC[C@H]1c1ncc(-c2ccc(-c3ccc4cc(-c5cnc([C@@H]6CCCN6C(=O)[C@@H](NC(=O)OC)C(C)C)[nH]5)ccc4c3)cc2)[nH]1	0.788 nM
COC(=O)N[C@H](C(=O)N1CCC[C@H]1c1ncc(-c2ccc3c(c2)C(=O)c2cc(-c4ccc5nc([C@@H]6[C@H]7CC[C@H](C7)N6C(=O)[C@@H](NC(=O)OC)C(C)C)[nH]c5c4)ccc2-3)[nH]1)C(C)C	0.006 nM

SMILES	EC50
CNC(=O)N1C[C@@H](c2ncc(-c3ccc(C#Cc4ccc(-c5cnc([C@@H]6CCCN6C(=O)[C@@H](NC(=O)OC)C(C)C)[nH]5)cc4)cc3)[nH]2)N(C(=O)[C@@H](NC(=O)OC)C(C)C)C1	0.245 nM
COC(=O)N[C@H](C(=O)N1CCC[C@H]1c1ncc(-c2ccc3c(c2)S(=O)(=O)c2ccc(-c4cnc([C@@H]5CCCN5C(=O)[C@@H](NC(=O)OC)C(C)C)[nH]4)cc2S3(=O)=O)[nH]1)C(C)C	10.3 nM
COC(=O)N[C@H](C(=O)N1CC2(CC2)C[C@H]1c1ncc(-c2ccc3cc(-c4ccc(-c5cnc([C@@H]6C[C@H](C#N)CN6C(=O)[C@@H](NC(=O)OC)C(C)(C)C)[nH]5)cc4)ccc3c2)[nH]1)C(C)C	0.0127 nM
COC(=O)N[C@H](C(=O)N1CCC[C@H]1c1ncc(-c2ccc(-c3ccc(-c4cnc([C@@H]5CC6(CCC6)ON5C(=O)[C@@H](NC(=O)OC)C(C)C)[nH]4)cc3)cc2)[nH]1)C(C)C	0.0083 nM
COC(=O)N[C@H](C(=O)N1CCC[C@H]1c1ncc(-c2ccc(-c3ccc4cc(-c5cnc([C@@H]6C[C@H](C#N)CN6C(=O)[C@H](NC(=O)OC)c6ccccc6)[nH]5)ccc4c3)cc2)[nH]1)C(C)C	0.0097 nM
COC(=O)N[C@H](C(=O)N1CCC[C@H]1c1ncc(C#Cc2ccc(-c3ccc4nc([C@@H]5CCCN5C(=O)[C@@H](NC(=O)OC)C(C)C)[nH]c4c3)cc2)[nH]1)C(C)C	0.0168 nM
COC(=O)N[C@H](C(=O)N1CCC[C@H]1c1ncc(-c2cc3c(C)c4sc(-c5cnc([C@@H]6CCCN6C(=O)[C@@H](NC(=O)OC)C(C)C)[nH]5)cc4c(C)c3s2)[nH]1)C(C)C	0.0166 nM
COC(=O)N[C@H](C(=O)N1CCC[C@H]1c1ncc(-c2ccc(-c3ccc4cc(-c5cnc([C@@H]6CCCN6C(=O)[C@@H](NC(=O)OC)C(C)C)[nH]5)ccc4c3)cc2)[nH]1)c1ccc(F)cc1	0.043 nM
COC(=O)N[C@H](C(=O)N1CCC[C@H]1c1ncc(-c2ccc(-c3ccc(-c4cnc([C@@H]5C[C@@H](COC(F)F)CN5C(=O)[C@@H](NC(=O)OC)C(C)C)[nH]4)cc3)cc2)[nH]1)C(C)C	0.0129 nM
COC(=O)N[C@H](C(=O)N1CCC[C@H]1c1ncc(-c2ccc(C#Cc3ccc(-c4cnc([C@@H]5[C@H]6CC[C@H](C6)N5C(=O)[C@@H](NC(=O)OC)C(C)C)[nH]4)cc3)cc2)[nH]1)C(C)C	0.073 nM
COC(=O)N[C@@H](C)C(=O)N1[C@@H]2CC[C@@H](C2)[C@H]1c1ncc(-c2ccc3cc(-c4ccc5cc(-c6cnc([C@@H]7CCCN7C(=O)[C@@H](NC(=O)OC)C(C)C)[nH]6)ccc5c4)ccc3c2)[nH]1	1.17 nM
COC(=O)N[C@H](C(=O)N1CC2(CC2)C[C@H]1c1ncc(-c2ccc3c(c2)C(F)(F)c2cc(-c4c[nH]c([C@@H]5CCCN5C(=O)[C@@H](NC(=O)OC)C5CCOCC5)n4)ccc2-3)[nH]1)C(C)C	0.0614 nM
COC(=O)N[C@H](C(=O)N1CC2(C[C@H]1c1ncc(-c3ccc(-c4ccc(-c5cnc([C@@H]6CCCN6C(=O)[C@@H](NC(=O)OC)C6CCOCC6)[nH]5)cc4)cc3)[nH]1)OCCO2)C(C)C	0.546 nM
COC(=O)N[C@H](C(=O)N1CCC[C@H]1c1ncc(-c2ccc3cc(-c4ccc5nc([C@@H]6CCN6C(=O)[C@H](NC(=O)OC)c6ccccc6)[nH]c5c4)ccc3c2)[nH]1)C(C)C	0.07 nM
COC(=O)N[C@@H](CC#N)C(=O)N1[C@@H]2CC[C@@H](C2)[C@H]1c1ncc(-c2ccc3cc(-c4ccc(-c5cnc([C@@H]6CCCN6C(=O)[C@@H](NC(=O)OC)C(C)C)[nH]5)cc4)ccc3c2)[nH]1	0.013 nM
COC(=O)N[C@H](C(=O)N1CCC[C@H]1c1ncc(-c2ccc(-c3ccc(-c4cnc([C@@H]5CCCN5C(=O)[C@@H](NC(=O)OC)C(C)C)[nH]4)cc3C#N)cc2)[nH]1)C(C)C	0.0158 nM
